The test system of data set [1] is dogs with moderate to severe itching (pruritus). Briefly: Pruritus Study B (prednisolone controlled). It is filed as in vivo, dog. The settings on record: day 14; oral BID for 14 days (prednisolone 0.25-0.5 mg/kg, compound 1 0.4-0.6 mg/kg); time zero about 75 mm. The source says: (§1) Investigators attributed pruritus to one or more of the following: allergic dermatitis, atopic dermatitis, food allergy, contact allergy, flea allergy, sarcoptic mange. Dogs were six months of age or older, weighed a minimum of 3 kg and were physically healthy apart from their pruritic condition. Dogs were flea-free, and appropriate preventatives and treatments were used throughout the studies. The studies were designed as follows in Table 2 and Table 3.

The test system of data set [2] is client owned dogs with a history of chronic atopic dermatitis. Briefly: Study in client owned dogs with chronic atopic dermatitis (Table 1). It is filed as in vivo, dog. The settings on record: 0.19-0.39 mg/kg BID oral for 28 days; Day 1, 14 and 28. The method, then:
A study was conducted in client owned dogs. Fifty-six dogs, greater than 1 year of age, weighing 2-50 kg, with a history of chronic atopic dermatitis were enrolled at three veterinary schools. The study design is illustrated in the following Table 1: […]

Data set [3] has as its system dogs with moderate to severe itching (pruritus). Briefly: Pruritus Study A (placebo controlled). The format is in vivo, dog.
Text: as §1

In data set [4] the test system is client-owned dogs with chronic non-seasonal atopic dermatitis. The format is in vivo. The settings on record: 0.4-0.6 mg/kg BID oral. The source says:
(§2) Minimum CADESI scores were assigned by a dermatologist or veterinarian (CADESI-01 score of 25 or CADESI-3 score of 60). Dogs were either 1 year of age or 6 months of age or older and weighed a minimum of 3 kg and were physically healthy apart from their atopic disease. The dogs had at least a 1 year or 6 month documented history of chronic non-seasonal atopic dermatitis. The dogs were flea free and appropriate preventatives and treatments were used throughout the study.
In these studies, animals were administered from 0.4-0.6 mg/kg body weight of a JAK inhibitor BID for up to 112 days.

The subject of the next data set is laboratory dogs. Nature of the data set: High dose BID safety study in 6 month old laboratory dogs. It is filed as in vivo, dog. The method, then:
A high dose (3 mg/kg BID) was given to 6 month old laboratory dogs.

Data set [5] deals with dogs with chronic non-seasonal atopic dermatitis. Nature of the data set: Atopic Dermatitis Dose Selection Study. The format is in vivo, dog. Particulars: oral.
Text: as §2

In the next data set the test system is laboratory-bred dogs. The method, then:
A target animal safety program (8 studies) was conducted. 131 laboratory-bred dogs were exposed to N-methyl-1-{trans-4-[methyl(7H-pyrrolo[2,3-d]pyrimidin-4-yl)amino]cyclohexyl}methanesulfonamide maleate (i.e. N-methyl-1-{trans-4-[methyl(7H-pyrrolo[2,3-d]pyrimidin-4-yl)amino]cyclohexyl}methanesulfonamide maleic acid salt maleic acid salt). Doses ranged from 0.5 mg/kg/day (0.25 mg/kg BID) to 18 mg/kg/day (9 mg/kg BID). Duration of exposure ranged from 10 days to 6 months. Recovery periods were incorporated into two studies. A series of early studies were designed to ensure the safety of client-owned dogs in the field safety and efficacy studies.
In a “margin of safety” study, the following treatments were given: […]

The conditions of data set [6]: dog, in vivo. The protocol:
All doses are expressed in terms of mg/kg of free base. Serial blood samples for determination of pharmacokinetics were collected following Compound 1 administration. Blood samples at 0, 1, 4, 8, and 12 hours post dose were collected via jugular venipuncture into K2EDTA tubes and placed on ice until centrifuged. Harvested plasma was stored at approximately −20° C. until analysis.
Thirty-two beagle dogs (16 female, 16 male) were allocated to four treatment groups. Dogs in Treatment 1 received placebo capsule (0 mg/kg) orally. […] All dogs received a twice daily doses 0, 0.6, 1.8, and 3.0 mg/kg for weeks 1 through 6 and a single daily doses of 0, 0.6, 1.8, and 3.0 mg/kg for weeks 7 through 26. On pharmacokinetic sample collection days, dogs were fasted the previous night and fed four hours post dose administration. To calculate AUC0-24 for study days 53 and 168, steady-state was assumed and the 24 hour concentration was assumed to be equal to the 0 hour concentration, and used for the 0 hour concentration. As the actual doses of Compound 1 varied from the group target doses, the pharmacokinetic variables AUC0-τ, (AUC of the dosing interval), Cmax, and Cτ (trough concentration) were all normalized to the group target dose.

The next data set is described as follows: in vitro. The settings on record: human, Caco-2. The source says: The in vitro permeability of Compound 1 was experimentally determined in a Caco-2 cell monolayer study. […] The dog gastric pH has been reported to range from 1.08 to 2.0 (Sagawa, Li et al. 2009; Mahar, Portelli et al. 2012).
For data set [7], the system named is cytokine receptors that share the common gamma chain (e.g. IL-2R, IL-4R). Briefly: Inhibition of cytokine function, common gamma chain receptors. It is filed as cell-based. Particulars: read-out: IC50's of representative family members.
Data set [8] relates to JAK-1 dependent cytokines (e.g. IL-2, IL-4, IL-6, IL-13, and IL-31). Nature of the data set: Inhibition of JAK-1 dependent cytokines. It is filed as cell-based.
Data set [9] relates to cytokines that are exclusively dependent on JAK2 function (EPO, GM-CSF). Briefly: Inhibition of cytokines exclusively dependent on JAK2. The format is cell-based. The settings on record: ratio of IC50's.
The test system of another data set is IL-12 and IL-23. Briefly: Inhibition of cytokines that utilize JAK2/TYK2 and not JAK1. It is filed as cell-based.
Data set [10] deals with cytokine receptors that share the gp130 subunit (e.g. IL-6) as well as IL-13. Nature of the data set: Inhibition of gp130 subunit cytokine receptors and IL-13. It is filed as cell-based.
For data set [11], the system named is the IL-10 family, the IL-12 family (that share the p40 subunit), or the IL-3 family. Briefly: Inhibition of IL-10, IL-12 and IL-3 family cytokines. The format is cell-based.
For data set [12] the following is noted: dog, in vivo. This is another data set of the same source.
For data set [13] the following is noted: pH 5.5.
Another data set in a line: physchem. The settings on record: pH 3.8.
Data set [14] is described as follows: Other pharmacokinetic studies in dogs (IV and PO). Particulars: for bioavailability: po.

Usually Papp stands for a coefficient for how fast a substance crosses the barrier. A lower Papp goes with slow passage. As a reminder, the IC50 is the midpoint of a concentration-inhibition curve. As usually defined, the solubility is the dissolved amount per volume that the medium holds. Low readings indicate a poorly soluble substance, high ones a readily soluble substance. The term half-life denotes the time in which the quantity being followed falls by half. Low values mean fast loss, high ones slow loss. As usually defined, the bioavailability is dose-corrected exposure relative to a reference, in per cent.

Values joined by “and” are separate entries in the source; they are usually repeats but may differ in a detail not shown here. Equal entries are not always repeated. Where two headings read alike, the source gives them in different places.

`C[C@]12C=CC(=O)C=C1CC[C@@H]1[C@@H]2[C@@H](O)C[C@@]2(C)[C@H]1CC[C@]2(O)C(=O)CO` [prednisolone, Prednisolone, reference compound]: in data set [1], the “LS mean owner VAS score” value is given as “about 10 mm”.
In the case of `CNS(=O)(=O)C[C@H]1CC[C@H](N(C)c2ncnc3[nH]ccc23)CC1.O=C(O)/C=C\C(=O)O` [Compound 1, N-methyl-1-{trans-4-[methyl(7H-pyrrolo[2,3-d]pyrimidin-4-yl)amino]cyclohexyl}methanesulfonamide maleate], the “reduction in owner assessed VAS pruritus scores compared with placebo” value in [2] is recorded as “significantly (p≦0.07) different”. Also, the “owner VAS scores by day compared to placebo (T01)” value in [3] (0.4-0.6 mg/kg BID oral for 7 days) is “lower each day starting on day 1”. Also, the “LS mean owner VAS score” value is reported as “about 25 mm” in [3] (day 7, 0.4-0.6 mg/kg BID oral, time zero about 75 mm, placebo about 55 mm) and “about 18 mm” in data set [1]. Also, in data set [4], the “efficacy for the control of atopic dermatitis including pruritus” value was “excellent efficacy”. Further, the effects observed result in the data set with laboratory dogs (0.6 mg/kg BID group) is listed as “few effects”. Moreover, the “dogs with clinical signs of integument (demodex)” value with laboratory dogs (3 mg/kg BID, 6 month old laboratory dogs) is 7/8. The “Investigator CADESI score over 112 days, order of treatment groups from highest to lowest” value in [5] was “T01 (placebo), T04 (0.2-0.3 mg/kg SID compound 1), T03 (0.4-0.6 mg/kg SID compound 1), and T02 (0.4-0.6 mg/kg BID for 14 days followed by 0.4-0.6 mg/kg SID thereafter)”. The “significant decreases in red blood cell parameters outside normal laboratory reference ranges” value in the data set with laboratory-bred dogs (0.6 mg/kg dose) is listed as “not detected”. In addition, the “deaths or other serious adverse events” value in the data set on laboratory-bred dogs (0.6, 1.8 or 3.0 mg/kg oral, BID weeks 1-6 then SID weeks 7-26) is listed as “no observed deaths or other serious adverse events”. In addition, the “increase in mean AUC0-12 from Day 0 to Day 21” value in data set [6] (both, beagle, po) was 40%. For the same molecule, the “male/female differences in pharmacokinetic parameters” value in data set [6] was “there did not appear to be any systematic male/female differences”. The “increase in AUC0-12 and Cmax with dose” value in [6] (po, 3 mg/kg) was “dose proportional from 0.6 to 3.0 mg/kg”. Further, the Papp in “in vitro” stood at 40.4 ×10⁻⁶ cm/s. The IC50 in [7] was 63 nM to 249 nM and 0.021 µg/mL to 0.084 µg/mL; in data set [8] it was < 249 nM and < 0.084 µg/mL; with IL-12 and IL-23 it was more than 3000 nM. The “fold less potent than the JAK1-dependent cytokines (IL-2, 4, 6, 13, and 31)” value in [9] was 4-17 fold. The “inhibition of cytokine receptor function” value in [10] is listed as “inhibits the function”. Moreover, in data set [11], the inhibition of cytokines result is on record as “it does not appear that compound 1 inhibits”. Moreover, the “impact of breed on pharmacokinetic profile” value in data set [12] is listed as “breed does not impact the pharmacokinetic profile”. Also, the solubility result is “practically insoluble” in data set [13] and 10.4 mg/mL in the data set “physchem”. Besides, the calculated fraction absorbed result in [14] (based on bioavailability 85%, clearance 4 mL/min/kg, blood flow 40 mL/min/kg) is “greater than 0.9”. Also, the half-life in [14] (dog, plasma) is 4 h. For the same molecule, the clearance in data set [14] (dog, plasma, intravenous) stood at 4 mL/min/kg. The bioavailability in [14] (dog, plasma, absolute oral bioavailability, mean range, dogs) was 79 to 89%; in data set [14] (dog, plasma, bioavailability, value used to calculate fraction absorbed) it was 85%. For the same molecule, in data set [14] (dogs), the volume of distribution entry was “moderate volume of distribution”. Also, the “time of mean maximum plasma concentrations post dose” value in [14] (oral administration, dogs) is on record as “approximately 1 hour”.
